Data from the supplement of paper PMC10307832.

Columns and labels:
Assay in all cases: relative viability (nuclei count vs DMSO), 5 days (fraction); higher = more cells survive
XMD13-2 + OSI-027 = compound: C1CC1C(=O)NC2=NNC3=C2C=CC(=C3)C4=CC(=CC=C4)C(=O)NC5CC5 [XMD13-2] + COc1cccc2cc(-c3nc([C@H]4CC[C@H](C(=O)O)CC4)n4ncnc(N)c34)[nH]c12 [OSI-027] (partner 0.5 µM)
Procedure, shortened: (§1)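 Lung cancer cell lines, seeded in 1536-well plates, were treated the following day by pin tool with a single drug or with five library-drug doses (not always all listed) in √10 steps on top of a fixed anchor-drug dose. Cells were fixed and nuclei stained in one step after 5 days, and nuclei were counted. Relative viability is the nuclei count for treated wells divided by that for vehicle wells, reported as medians of duplicate plates.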

XMD13-2 + Tozasertib = compound: C1CC1C(=O)NC2=NNC3=C2C=CC(=C3)C4=CC(=CC=C4)C(=O)NC5CC5 [XMD13-2] + Cc1cc(Nc2cc(N3CCN(C)CC3)nc(Sc3ccc(NC(=O)C4CC4)cc3)n2)n[nH]1 [Tozasertib] (partner 0.1 µM)
Procedure, shortened: as §1

Dasatinib + Tozasertib = compound: Cc1nc(Nc2ncc(C(=O)Nc3c(C)cccc3Cl)s2)cc(N2CCN(CCO)CC2)n1 [Dasatinib] + Cc1cc(Nc2cc(N3CCN(C)CC3)nc(Sc3ccc(NC(=O)C4CC4)cc3)n2)n[nH]1 [Tozasertib] (partner 0.1 µM)
Procedure, shortened: as §1

Dasatinib + Alpelisib = compound: Cc1nc(Nc2ncc(C(=O)Nc3c(C)cccc3Cl)s2)cc(N2CCN(CCO)CC2)n1 [Dasatinib] + Cc1nc(NC(=O)N2CCC[C@H]2C(N)=O)sc1-c1ccnc(C(C)(C)C(F)(F)F)c1 [Alpelisib] (partner 2 µM)
Procedure, shortened: as §1

| Cell Line | relative viability (XMD13-2 + OSI-027; first compound 0.05 µM) | relative viability (XMD13-2 + OSI-027; first compound 0.1581 µM) | relative viability (XMD13-2 + OSI-027; first compound 0.5 µM) | relative viability (XMD13-2 + OSI-027; first compound 1.581 µM) | relative viability (XMD13-2 + OSI-027; first compound 5 µM) | relative viability (XMD13-2 + Tozasertib; first compound 0.05 µM) | relative viability (XMD13-2 + Tozasertib; first compound 0.1581 µM) | relative viability (XMD13-2 + Tozasertib; first compound 0.5 µM) | relative viability (XMD13-2 + Tozasertib; first compound 1.581 µM) | relative viability (XMD13-2 + Tozasertib; first compound 5 µM) | relative viability (Dasatinib + Tozasertib; first compound 0.005 µM) | relative viability (Dasatinib + Tozasertib; first compound 0.01581 µM) | relative viability (Dasatinib + Tozasertib; first compound 0.05 µM) | relative viability (Dasatinib + Tozasertib; first compound 0.1581 µM) | relative viability (Dasatinib + Tozasertib; first compound 0.5 µM) | relative viability (Dasatinib + Alpelisib; first compound 0.005 µM) | relative viability (Dasatinib + Alpelisib; first compound 0.01581 µM) | relative viability (Dasatinib + Alpelisib; first compound 0.05 µM) | relative viability (Dasatinib + Alpelisib; first compound 0.1581 µM) | relative viability (Dasatinib + Alpelisib; first compound 0.5 µM) |
| --- | --- | --- | --- | --- | --- | --- | --- | --- | --- | --- | --- | --- | --- | --- | --- | --- | --- | --- | --- | --- |
| NCI-H2023 | 0.58 | 0.36 | 0.4 | 0.357 | 0.341 | 0.524 | 0.34 | 0.372 | 0.281 | 0.309 | 0.304 | 0.316 | 0.293 | 0.245 | 0.219 | 0.479 | 0.481 | 0.436 | 0.473 | 0.27 |
| HCC-366 | 1.02 | 0.598 | 1.15 | 0.888 | 0.983 | 0.0882 | 0.0936 | 0.127 | 0.115 | 0.116 | 0.115 | 0.109 | 0.109 | 0.0407 | 0.0371 | 0.096 | 0.174 | 0.141 | 0.151 | 0.103 |
| NCI-H1355 | 0.48 | 0.413 | 0.394 | 0.382 | 0.387 | 0.64 | 0.631 | 0.638 | 0.548 | 0.589 | 0.585 | 0.421 | 0.459 | 0.401 | 0.347 | 0.674 | 0.621 | 0.652 | 0.53 | 0.297 |
| NCI-H1650 | 0.651 | 0.609 | 0.747 | 0.555 | 0.697 | 0.439 | 0.36 | 0.471 | 0.381 | 0.588 | 0.356 | 0.302 | 0.342 | 0.233 | 0.153 |  |  |  |  |  |
| NCI-H2342 | 0.581 | 0.658 | 0.728 | 0.643 | 0.597 | 0.547 | 0.421 | 0.525 | 0.603 | 0.575 | 0.524 | 0.427 | 0.333 | 0.356 | 0.218 |  |  |  |  |  |
| NCI-H1299 |  |  |  |  |  |  |  |  |  |  |  |  |  |  |  | 1.07 | 1.13 | 1.08 | 0.924 | 0.288 |
| NCI-H522 | 0.71 | 0.692 | 0.742 | 0.701 | 0.658 | 0.531 | 0.651 | 0.593 | 0.483 | 0.412 | 0.568 | 0.483 | 0.539 | 0.466 | 0.437 |  |  |  |  |  |
| NCI-H1623 | 0.417 | 0.43 | 0.408 | 0.363 | 0.462 | 0.5 | 0.456 | 0.437 | 0.42 | 0.483 | 0.447 | 0.329 | 0.442 | 0.351 | 0.363 |  |  |  |  |  |
| NCI-H1648 | 0.251 | 0.266 | 0.241 | 0.291 | 0.259 | 0.5 | 0.314 | 0.608 | 0.51 | 0.342 | 0.624 | 0.545 | 0.327 | 0.233 | 0.14 |  |  |  |  |  |
| NCI-H1703 |  |  |  |  |  |  |  |  |  |  |  |  |  |  |  | 0.229 | 0.179 | 0.184 | 0.155 | 0.157 |
| ChaGo-K-1 | 0.642 | 0.545 | 0.597 | 0.542 | 0.497 | 0.234 | 0.214 | 0.254 | 0.222 | 0.258 | 0.23 | 0.203 | 0.207 | 0.21 | 0.186 |  |  |  |  |  |
